Reference: patent US20130005759A1, “SMALL MOLECULE MODIFIERS OF MICRORNA MIR-122” (North Carolina State University, priority 2010, published 2013)

Legend:
[1] = test system: psiCHECK-control vector (no miRNA target sequence); assay: psiCHECK-control vector luciferase counter-assay in Huh7 cells; assay type: cell-based, human; conditions: Huh7, 10 μM
Text: (FIG. 3). […] The relative luciferase units were normalized to the corresponding DMSO signals. […] This confirms that compound 2 and the antagomir have similar effects on the reduction of miR-122 function in Huh7 cells.
Compounds which elicited greater than a 5-fold increase of the relative luciferase units signal compared to the DMSO control were then re-assayed in triplicate to confirm the validity of the hit compound. Upon secondary validation of miR-122 inhibition, identical assays were repeated with the psiCHECK-Control vector to ascertain that the effect is specific to the miR-122 pathway, and not simply affecting the Renilla gene. In order to assess the relative degree of miR-122 inhibition, Huh7 cells were also co-transfected with either the psiCHECK-Control plasmid or the psiCHECK-miR122 plasmid (0.5 μg) and a miR-122 2′-OMe PS antagomir (50 pmol; 5′ […] (SEQ ID NO:4) 3′; IDT DNA)(2) using the X-tremGENE transfection reagent (Roche Applied Science, 4:2 reagent/DNA ratio). The transfection media was replaced with standard DMEM growth media after 4 hours and the cells were incubated for 48 hours prior to analysis with a Dual Luciferase Assay Kit (FIG. 3).

[2] = test system: miR-21; assay: miR-21 luciferase reporter assay in HeLa-miR-21-Luc cells; assay type: cell-based; conditions: 10 μM, 48 hours
Procedure: Using the previously described HeLa-miR-21-Luc cell line (a stably transfected line harboring a miR-21 binding sequence in the 3′ UTR of a firefly luciferase gene),(9) cells were grown to 80% confluency (DMEM) and treated with either DMSO, the previously reported miR-21 inhibitor, or compounds 1 and 2 at 10 μM (1% DMSO final concentration). The cells were incubated for 48 hours at 37° C. (5% CO2) and then assayed with a Bright-Glo Luciferase Kit (Promega) and analyzed using a Wallac VICTOR^3V luminometer with a measurement time of 1 s and a delay time of 2 s (FIG. 4).

[3] = test system: miR-122; assay: quantitative RT PCR of mature miR-122 in Huh7 cells; assay type: cell-based, human; conditions: Huh7, 10 μM, 48 hours
Procedure: (§1) The activity of the small molecule modifiers was analyzed by quantitative RT PCR in order to measure their direct effects on miR-122 expression levels in Huh7 cells. […] All experiments were conducted in triplicate, and the data was normalized to a DMSO control.
Each treatment was conducted in triplicate to ensure statistical validity. Cells were then incubated at 37° C. for 48 hours (DMEM, 5% CO2). The media was removed, and cells were washed with PBS buffer (2×2 mL, pH 7.4) followed by RNA isolation with the mirPremier™ microRNA Isolation Kit (Aldrich). The RNA was quantified using a Nanodrop ND-1000 spectrophotometer and 10 ng of each RNA sample was reverse transcribed using the TaqMan™ microRNA Reverse Transcription Kit (Applied Biosystems) in conjunction with either the miR-122 or miR-21 TaqMan™ RT primer (16° C., 30 min; 42° C., 30 min; 85° C., 5 min). Quantitative Real Time PCR was conducted with a TaqMan™ 2× Universal PCR Master Mix and the appropriate TaqMan™ miRNA assay (Applied Biosystems) on a BioRad MyiQ RT-PCR thermocycler (1.3 μL RT PCR product; 95° C., 10 min; followed by 40 cycles of 95° C., 15 s; 60° C. 60 s). Threshold cycles were used to determine miRNA copy numbers, and the levels of miR-122 and miR-21 were compared via determination of threshold cycle (Ct) and conversion to copy number (copy number=10[(Ct−37.4)/−3.3]).^17 The data was then normalized to the DMSO control. The samples were also analyzed by real time PCR for the presence of pri-miR-122 transcript using the previously described primers (5′ […] 3′ (SEQ ID NO:5) and 5′ […] 3′ (SEQ ID NO:6); IDT DNA) and iQ SYBR Green Supermix for the real time PCR (95° C., 3 min; followed by 40 cycles of 95° C., 15 s; 60° C. 60 s).^14

[4] = test system: pri-miR-122; assay: quantitative RT PCR of pri-miR-122 in Huh7 cells; assay type: cell-based, human; conditions: Huh7, 10 μM, 48 hours, normalized to DMSO
Procedure: as §1
Each treatment was conducted in triplicate to ensure statistical validity. Cells were then incubated at 37° C. for 48 hours (DMEM, 5% CO2). The media was removed, and cells were washed with PBS buffer (2×2 mL, pH 7.4) followed by RNA isolation with the mirPremier™ microRNA Isolation Kit (Aldrich). The RNA was quantified using a Nanodrop ND-1000 spectrophotometer and 10 ng of each RNA sample was reverse transcribed using the TaqMan™ microRNA Reverse Transcription Kit (Applied Biosystems) in conjunction with either the miR-122 or miR-21 TaqMan™ RT primer (16° C., 30 min; 42° C., 30 min; 85° C., 5 min). Quantitative Real Time PCR was conducted with a TaqMan™ 2× Universal PCR Master Mix and the appropriate TaqMan™ miRNA assay (Applied Biosystems) on a BioRad MyiQ RT-PCR thermocycler (1.3 μL RT PCR product; 95° C., 10 min; followed by 40 cycles of 95° C., 15 s; 60° C. 60 s). […]

Row | SMILES | normalized Renilla luciferase signal with psiCHECK-control vector [1] | activity in miRNA-21 reporter (luciferase signal) [2] | knock-down of mature miR-122 levels relative to DMSO treated cells [3] [%] | pri-miR-122 down-regulation to (remaining level) [4] [%]
1 | O=C(Nc1ccc2ccccc2c1)c1ccc(Cl)cc1Cl [Compound 1] | no statistically significant alteration | no activity was found | 45 | 22
2 | O=S(=O)(c1ccc2c(c1)CCCN2)N1CCC[C@H]2CCCC[C@@H]21 [Compound 2] | no statistically significant alteration | no activity was found | 72 | 3
